Assay results reported in patent US7767789B2, “Truncated proteins as cancer markers” (University Hopitals of Cleveland, priority 2005, dated 2010).

Experiments:
[1] = test system: HEK-293 cells (wild-type, expressing P2X7 or P2X7-j); assay: Cell-number index of HEK-293 cells grown in culture; format: cell-based, human; settings: 100 micromolar BzATP
Procedure: Alterations in cell number for HEK-293 cells, HEK-293 cells expressing P2X7-RFL, and HEK-293 cells expressing P2X7-RTR grown in culture were studied. FIG. 15A. The three cells lines were grown in culture and viable cells were counted for a period of 3 days. The data are presented as cell number index versus days in culture. […] For example, a P2X7-RFL receptor protein may facilitate cellular apoptosis (infra).
The cell number of wild-type HEK-293 cells and of HEK-293 cells expressing P2X7-j protein increased to a greater degree than that of HEK-293 cells expressing the P2X7 protein. FIG. 15A.

HEK-293-P2X7 cells = assay: Apoptosis, Cell Death Detection ELISA-PLUS, HEK-293 cells; format: cell-based, human; settings: BzATP 50 micromolar
Procedure: Baseline and BzATP-induced apoptosis in MDCK cells and in HEK-293 cells expressing P2X7 and P2X7-j proteins were studied. FIG. 17. […] Cells were treated with BzATP (50 micromolar) to activate the P2X7 receptors. Apoptosis was quantified using Cell Death Detection ELISA-PLUS photometric enzyme-immunoassay that determines cytoplasmic histone-associated-DNA-fragments (mono and oligonucleosomes) after spontaneous or induced cell death (Roche, Cat. No. 1774425, 96 tests). […] Expression of the P2X7-j proteins either had no effect (HEK-293 cells) or may have decreased apoptosis (MDCK cells).

HeLa cells = assay: Cell selection: growth with BzATP and immunoblot of P2X7/P2X7-j protein, HeLa; format: cell-based, human; settings: 50 micromolar BzATP, seven days
Procedure: Growth of various cell lines expressing P2X7 and/or P2X7-j in the presence or absence of BzATP was performed to determine how P2X7 receptors may affect cell selection over time. FIG. 23. HEK-293 cells expressing P2X7, HEK-293 cells expressing P2X7-j, or HeLa cells, which express both P2X7 and P2X7-j were separately grown in culture, in the presence or absence of 50 micromolar BzATP for seven (7) days. At various time points, samples of the cells were taken and examined for expression of P2X7 and/or P2X7-j protein by immunoblotting using a P2X7-specific antibody. This antibody was obtained from Alomone Labs (Jerusalem, Israel) and was reactive with the extracellular domain of P2X7 protein. Amino acids 136-152 of the mouse P2X7 receptor ([…]; (SEQ ID NO:7)) were used as the antigen to prepare the antibody. A labeled secondary antibody was used to visualize reactive protein bands. By layering equal amounts of total protein (15 micrograms) it was possible to compare the relative expression of the P2X7 and/or P2X7-j proteins by the cells.

[2] = molecular target: T1, P2X7-mediated pore (MDCK cells expressing P2X7 or P2X7-j) (Homo sapiens, UniProt Q99572, R270H/Y155H); assay: BzATP-stimulated pore activation (ethidium bromide entry), MDCK cells; format: cell-based; settings: doxycycline-treated MDCK-P2X7 cells; BzATP 100 micromolar
T1 construct: expressed in transfected cells; host or cells: MDCK (canine kidney), doxycycline-inducible promoter
Procedure: (§1) BzATP-stimulated pore activation of P2X7 and P2X7-j receptor proteins was also determined. FIG. 13. MDCK cells or HEK-293 cells expressing either P2X7 or P2X7-j were treated with BzATP in the presence of ethidium bromide. Fluorescence of ethidium bromide was measured after BzATP activation (100 micromolar) as a measure of ethidium bromide entry into the cells via the P2X7-mediated pore. Results in seven Panels (A-G) each composed of 30 exposures of cells placed on a glass slide. The direction of the pictures in each Panel is left to right, and then up-down. […] FIG. 13, Panel B and Panel F, respectively.
(§2) A quantification of the changes in ethidium bromide signaling from experiments similar to those in FIG. 13 was then calculated. FIG. 14.

[3] = molecular target: T2, P2X7-mediated pore (MDCK cells expressing P2X7 or P2X7-j) (Homo sapiens, UniProt Q99572, Y155H); assay: as above; format: cell-based; settings: doxycycline-treated MDCK-P2X7-j cells compared to MDCK-P2X7 cells
T2 construct: expressed in transfected cells; host or cells: MDCK (canine kidney), doxycycline-inducible promoter
Procedure: as §1, §2

[4] = molecular target: T3, P2X7-mediated pore (HEK-293 cells expressing P2X7 or P2X7-j) (Homo sapiens, UniProt Q99572, R270H/Y155H); format: cell-based; settings: HEK-293-P2X7 cells; BzATP 100 micromolar
T3 construct: expressed in transfected cells; host or cells: HEK-293

[5] = molecular target: T4, P2X7-mediated pore (HEK-293 cells expressing P2X7 or P2X7-j) (Homo sapiens, UniProt Q99572, Y155H); format: cell-based; settings: HEK-293-P2X7-j cells compared to HEK-293-P2X7 cells
T4 construct: expressed in transfected cells; host or cells: HEK-293

[6] = test system: P2X7-mediated pore (HEK-293 cells expressing P2X7 or P2X7-j); format: cell-based, human; settings: P2X7 plus P2X7-j HEK-293 cells compared to P2X7 HEK-293 cells
[7] = molecular target: T5, full-length human P2X7 receptor (HEK-293-hP2X7-R cells) (Homo sapiens, UniProt Q99572); assay: Cytosolic calcium in HEK-293-hP2X7-R and wild-type HEK293 cells on filters; format: cell-based
T5 construct: For transfections, the full length human P2X7 receptor; expressed in transfected cells; host or cells: HEK-293, pcDNA-6 vector
T5 sequence (Q99572 1-595): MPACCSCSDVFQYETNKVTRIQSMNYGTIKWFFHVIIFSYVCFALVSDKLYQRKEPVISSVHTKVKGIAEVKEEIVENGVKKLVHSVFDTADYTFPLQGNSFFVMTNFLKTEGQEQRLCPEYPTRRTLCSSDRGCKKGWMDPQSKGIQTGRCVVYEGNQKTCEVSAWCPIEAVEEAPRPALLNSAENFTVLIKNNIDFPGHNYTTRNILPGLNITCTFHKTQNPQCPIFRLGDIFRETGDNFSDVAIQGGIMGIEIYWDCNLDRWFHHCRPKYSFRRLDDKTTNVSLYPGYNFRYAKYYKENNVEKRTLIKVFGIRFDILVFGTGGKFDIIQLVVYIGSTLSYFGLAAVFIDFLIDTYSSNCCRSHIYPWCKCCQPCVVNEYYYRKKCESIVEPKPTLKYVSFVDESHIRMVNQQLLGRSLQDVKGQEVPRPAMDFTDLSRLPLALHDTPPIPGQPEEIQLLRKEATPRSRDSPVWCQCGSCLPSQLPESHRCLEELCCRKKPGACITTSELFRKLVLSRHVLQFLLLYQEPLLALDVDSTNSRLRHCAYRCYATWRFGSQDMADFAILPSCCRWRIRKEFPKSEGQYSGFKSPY

[8] = molecular target: T5, full-length human P2X7 receptor (HEK-293-hP2X7-R cells); assay: Ethidium bromide influx in HEK-293-hP2X7-R and wild-type HEK293 cells on filters; format: cell-based

T2 sequence (Q99572 1-258 isoform Q99572-9 Y155H): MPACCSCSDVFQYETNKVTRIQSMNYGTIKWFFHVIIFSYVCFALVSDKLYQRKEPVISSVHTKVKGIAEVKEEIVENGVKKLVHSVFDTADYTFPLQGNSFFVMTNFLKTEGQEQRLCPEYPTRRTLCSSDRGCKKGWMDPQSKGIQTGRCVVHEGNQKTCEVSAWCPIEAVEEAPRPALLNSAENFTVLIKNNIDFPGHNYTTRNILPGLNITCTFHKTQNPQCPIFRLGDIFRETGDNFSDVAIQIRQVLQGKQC
T4 sequence (Q99572 1-258 isoform Q99572-9 Y155H): as above
T1 sequence (Q99572 whole entry Y155H/R270H): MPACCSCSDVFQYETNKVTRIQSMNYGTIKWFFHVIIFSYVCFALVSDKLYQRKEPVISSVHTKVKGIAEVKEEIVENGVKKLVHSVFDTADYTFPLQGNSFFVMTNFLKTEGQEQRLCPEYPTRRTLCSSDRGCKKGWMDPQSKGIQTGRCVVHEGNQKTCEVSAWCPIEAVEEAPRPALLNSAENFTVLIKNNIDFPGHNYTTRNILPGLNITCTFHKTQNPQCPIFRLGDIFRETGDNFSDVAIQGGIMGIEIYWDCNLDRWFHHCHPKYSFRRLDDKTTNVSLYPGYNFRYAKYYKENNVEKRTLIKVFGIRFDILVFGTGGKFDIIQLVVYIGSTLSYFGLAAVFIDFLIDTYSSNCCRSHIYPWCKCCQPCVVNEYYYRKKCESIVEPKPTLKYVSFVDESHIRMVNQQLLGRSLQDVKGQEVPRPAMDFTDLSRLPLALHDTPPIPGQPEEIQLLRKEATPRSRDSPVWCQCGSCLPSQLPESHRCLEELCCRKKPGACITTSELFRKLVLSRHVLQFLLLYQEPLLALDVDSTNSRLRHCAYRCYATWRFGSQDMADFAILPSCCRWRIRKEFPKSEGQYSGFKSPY
T3 sequence (Q99572 whole entry Y155H/R270H): as above

In the case of “2′-3′-O-(4-benzoylbenzoyl)adenosine 5′-triphosphate [BzATP]”, the “growth of cells (cell number)” value ([1]; HEK-293-P2X7-j cells) is reported as “no significant effect”, the “growth of cells (cell number)” value ([1]; HEK-293-P2X7 cells) is reported as “significantly decreased further the growth” and the “growth of cells (cell number)” value ([1]; wild-type HEK-293 cells) is reported as “no significant effect”. For the same substance, the apoptosis (HEK-293-P2X7 cells) was “further increased this baseline apoptosis”, the “expression of P2X7 protein” value (HeLa cells) was “significantly decreased” and the “expression of the P2X7-j protein” value (HeLa cells) was “remained stable”. For the same substance, the “ethidium bromide signaling (pore)” value [2] was “increased ethidium bromide signaling”, the “ethidium bromide signaling response to BzATP” value [3] was “significantly smaller” and the “ethidium bromide signaling (pore)” value [4] was “increased ethidium bromide signaling”. For the same substance, the “ethidium bromide signaling response to BzATP” value [5] was “significantly smaller”, the “ethidium bromide response to BzATP” value [6] was “significantly smaller” and the “sustained cytosolic calcium increase” value [7] was “induced sustained Ci increase”. The “influx of ethidium bromide” value [8] was “influx of ethidium bromide”.
